We go through 2 compounds from US10618935B2, “Antibody-drug conjugate (ADC) and method for forming the same” (Industrial Technology Research Institute, priority 2015, dated 2020).

Structures are written as SMILES. Square brackets hold non-standard residues; d marks the D form. Peptide text beside a SMILES is read from it. * marks the point of attachment. Dolaproine = CO[C@@H]([C@@H]1CCCN1)[C@@H](C)C(=O)O; Dil = CC[C@H](C)[C@H](NC)[C@@H](CC(=O)O)OC; X2 = C[C@@H](N*)[C@@H](O)c1ccccc1; NMeV = CN[C@H](C(=O)O)C(C)C

Data set [1] in a line: Body weight and clinical symptoms in the tumor growth inhibition test. Particulars: FIG. 20.
Description: (§1) 1×10^6 of FaDu cells were subcutaneous injected to C.B-17 SCID mice at Day 0. The length and width of the tumor were measured and the tumor size was calculated by (length×width×width×½) (mm^3) and recorded. […] Tumor growth and body weight of the mice were observed twice every week.
In another data set the test system is FaDu cells. The data set is described as follows: Tumor growth inhibition test, FaDu subcutaneous tumor in C.B-17 SCID mice. The data set is classed as in vivo. Particulars: Day 8-29; 0.1 mg/kg intravenously once at Day 8; n=6.

Description for FaDu cells: as §1

As to `CC[C@H](C)C([C@@H](CC(=O)N1CCC[C@H]1[C@H](OC)[C@@H](C)C(=O)NC(Cc1ccccc1)C(=O)NCCc1ccc(N)cc1)OC)N(C)C(=O)C(NC(=O)[C@H](C(C)C)N(C)C)C(C)C` (stereo partly shown) [APEA-AF], the “weight loss or abnormal clinical symptoms after drug administration” value in data set [1] is on record as “no weight losing or other significant abnormal clinical symptoms occurred”. Further, in the data set with FaDu cells, the “TGI (%) ± SEM” value is on record as 11 ± 17%.

Consider `CC[C@H](C)[C@@H]([C@@H](CC(=O)N1CCC[C@H]1[C@H](OC)[C@@H](C)C(=O)N[C@H](C)[C@@H](O)c1ccccc1)OC)N(C)C(=O)[C@@H](NC(=O)[C@@H](NC)C(C)C)C(C)C` [MMAE] (H-[NMeV]V[Dil][Dolaproine]-X2), for which, in data set [1], the “weight loss or abnormal clinical symptoms after drug administration” value is on record as “no weight losing or other significant abnormal clinical symptoms occurred”. Further, in the data set on FaDu cells, the “TGI (%) ± SEM” value was determined as 12 ± 6%.
